Laboratory results: ChEMBL document CHEMBL6109039, “Designed and synthesized novel tripeptides targeting diabetes and its related pathologies” (Eur J Med Chem, 2025)
Residues, ends and D or L forms follow the SMILES beside them.

What was measured:
Albumin [1] = target: T1, Albumin (Homo sapiens, UniProt P02768); assay: Inhibition of D-glucose glycation in human serum albumin model by measuring ketoamine moieties incubated for 5 days by Nitroblue tetrazolium (NBT) reduction assay (reference value: 18.58 nmol/mL); details: 120 h, time 5 day
T1 sequence (P02768 whole entry): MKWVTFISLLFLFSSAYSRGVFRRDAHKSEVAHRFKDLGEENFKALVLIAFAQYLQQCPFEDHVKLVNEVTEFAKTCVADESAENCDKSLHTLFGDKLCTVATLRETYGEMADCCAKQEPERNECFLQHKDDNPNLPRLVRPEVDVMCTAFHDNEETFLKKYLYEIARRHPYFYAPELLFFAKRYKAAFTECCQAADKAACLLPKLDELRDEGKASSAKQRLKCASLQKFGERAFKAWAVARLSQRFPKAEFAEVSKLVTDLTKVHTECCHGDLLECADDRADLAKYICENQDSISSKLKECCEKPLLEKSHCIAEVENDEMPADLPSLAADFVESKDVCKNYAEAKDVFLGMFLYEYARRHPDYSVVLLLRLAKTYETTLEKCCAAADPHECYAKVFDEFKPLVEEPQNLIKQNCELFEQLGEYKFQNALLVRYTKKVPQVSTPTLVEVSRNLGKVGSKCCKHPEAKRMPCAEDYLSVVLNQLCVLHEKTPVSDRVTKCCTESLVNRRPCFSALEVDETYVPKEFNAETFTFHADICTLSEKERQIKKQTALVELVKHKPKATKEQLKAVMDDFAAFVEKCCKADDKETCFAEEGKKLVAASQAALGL

Albumin [2] = target: T1, Albumin; assay: Inhibition of D-glucose glycation in human serum albumin model by measuring ketoamine moieties incubated for 33 days by Nitroblue tetrazolium (NBT) reduction assay (reference value: 66.64 nmol/mL); details: 792 h, time 33 day
Mus musculus [3] = assay: Antidiabetic activity in Nicotinamide/Streptozotocin induced male Balb/c mouse model assessed as Non-HDL-Cholesterol level in blood at 63.81 ug/kg, ip treated for 21 days (reference value: 75 mg/dL); format: functional; details: dose 63.81 µg/kg, time 21 day
Mus musculus [4] = assay: Antidiabetic activity in Nicotinamide/Streptozotocin induced male Balb/c mouse model assessed as LDL-Cholesterol/HDL-Cholesterol ratio in blood at 63.81 ug/kg, ip treated for 21 days (reference value: 1.53); format: functional; details: dose 63.81 µg/kg, time 21 day
Mus musculus [5] = assay: Antidiabetic activity in Nicotinamide/Streptozotocin induced male Balb/c mouse model assessed as reduction in fasting blood glucose levels at 63.81 ug/kg, ip measured after 14 days by glucometer analysis (reference value: 168.5 +/- 8.42 mg/dl); format: functional; details: dose 63.81 µg/kg, time 14 day
Albumin [6] = target: T1, Albumin; assay: Inhibition of D-glucose glycation in human serum albumin model by measuring absorbance at 279 nm incubated for 5 days by UV spectroscopic analysis (reference value: 0.741); details: 120 h, time 5 day
Mus musculus [7] = assay: Antidiabetic activity in Nicotinamide/Streptozotocin induced male Balb/c mouse model assessed as TC/HDL-Cholesterol ratio in blood at 63.81 ug/kg, ip treated for 21 days (reference value: 4.03); format: functional; details: dose 63.81 µg/kg, time 21 day
Mus musculus [8] = assay: Antidiabetic activity in Nicotinamide/Streptozotocin induced male Balb/c mouse model assessed as reduction in VLDL-cholesterol level in blood at 63.81 microg/kg, ip treated for 21 days (reference value: 14 +/- 0.6 mg/dL); format: functional; details: dose 63.81 µg/kg, time 21 day
Mus musculus [9] = assay: Antidiabetic activity in Nicotinamide/Streptozotocin induced male Balb/c mouse model assessed as reduction in fasting blood glucose levels at 63.81 ug/kg, ip measured after 21 days by glucometer analysis (reference value: 180.5 +/- 9.02 mg/dl); format: functional; details: dose 63.81 µg/kg, time 21 day
Mus musculus [10] = assay: Antidiabetic activity in Nicotinamide/Streptozotocin induced male Balb/c mouse model assessed as reduction in alanine aminotransferase level in blood at 63.81 ug/kg, ip treated for 21 days (reference value: 111 +/- 5.05 U/L); format: functional; details: dose 63.81 µg/kg, time 21 day
Mus musculus [11] = assay: Antidiabetic activity in Nicotinamide/Streptozotocin induced male Balb/c mouse model assessed as reduction in Triglycerides level in blood at 63.81 ug/kg, ip treated for 21 days (reference value: 61 +/- 3.05 mg/dL); format: functional; details: dose 63.81 µg/kg, time 21 day
Mus musculus [12] = assay: Antidiabetic activity in Nicotinamide/Streptozotocin induced male Balb/c mouse model assessed as reduction in aspartate transaminase level in blood at 63.81 ug/kg, ip treated for 21 days (reference value: 171 +/- 8.55 U/L); format: functional; details: dose 63.81 µg/kg, time 21 day
Mus musculus [13] = assay: Antidiabetic activity in Nicotinamide/Streptozotocin induced male Balb/c mouse model assessed as change in body weight at 63.81 ug/kg, ip treated for 21 days (reference value: 16.62 +/- 0.83 g); format: functional; details: dose 63.81 µg/kg, time 21 day
Albumin [14] = target: T1, Albumin; assay: Inhibition of D-fructose glycation in human serum albumin model by measuring absorbance at 279 nm incubated for 30 days by UV spectroscopic analysis (reference value: 2.323); details: 720 h, time 30 day
Mus musculus [15] = assay: Antidiabetic activity in Nicotinamide/Streptozotocin induced male Balb/c mouse model assessed as reduction in fasting blood glucose levels at 63.81 ug/kg, ip measured after 7 days by glucometer analysis (reference value: 160.5 +/- 8.02 mg/dl); format: functional; details: dose 63.81 µg/kg, time 7 day
Mus musculus [16] = assay: Antidiabetic activity in Nicotinamide/Streptozotocin induced male Balb/c mouse model assessed as change in body weight at 63.81 ug/kg, ip treated for 21 days relative to control; format: functional; details: dose 63.81 µg/kg, time 21 day
Mus musculus [17] = assay: Antidiabetic activity in Nicotinamide/Streptozotocin induced male Balb/c mouse model assessed as reduction in HbA1c levels at 63.81 ug/kg, ip treated for 21 days by Turbidimetric immunoassay; format: functional; design: scale not given: the % may be the effect or the level left; details: dose 63.81 µg/kg, time 21 day
Albumin [18] = target: T1, Albumin; assay: Inhibition of D-fructose glycation in human serum albumin model by measuring ketoamine moieties incubated for 26 days by Nitroblue tetrazolium (NBT) reduction assay (reference value: 118.21 nmol/mL); details: 624 h, time 26 day
Mus musculus [19] = assay: Antidiabetic activity in Nicotinamide/Streptozotocin induced male Balb/c mouse model assessed as change in body weight at 63.81 ug/kg, ip measured immediately (reference value: 25.08 +/- 1.25 g); format: functional; details: dose 63.81 µg/kg
Albumin [20] = target: T1, Albumin; assay: Inhibition of D-glucose glycation in human serum albumin model by measuring absorbance at 279 nm incubated for 3 days by UV spectroscopic analysis (reference value: 0.562); details: 72 h, time 3 day
Albumin [21] = target: T1, Albumin; assay: Inhibition of D-glucose glycation in human serum albumin by measuring absorbance at 279 nm model incubated for 14 days by UV spectroscopic analysis (reference value: 2.302); details: 336 h, time 14 day
Albumin [22] = target: T1, Albumin; assay: Inhibition of D-glucose glycation in human serum albumin model by measuring absorbance at 279 nm incubated for 7 days by UV spectroscopic analysis (reference value: […]); details: 168 h, time 7 day
Albumin [23] = target: T1, Albumin; assay: Inhibition of D-glucose glycation in human serum albumin model by measuring absorbance at 279 nm incubated for 33 days by UV spectroscopic analysis (reference value: 1.997); details: 792 h, time 33 day
Albumin [24] = target: T1, Albumin; assay: Inhibition of D-glucose glycation in human serum albumin model assessed as reduction in fluorescence intensity incubated for 3 days by UV spectroscopic analysis relative to control; details: 72 h, time 3 day
Albumin [25] = target: T1, Albumin; assay: Inhibition of D-glucose glycation in human serum albumin model by measuring ketoamine moieties incubated for 14 days by Nitroblue tetrazolium (NBT) reduction assay (reference value: 28.69 nmol/mL); details: 336 h, time 14 day
Albumin [26] = target: T1, Albumin; assay: Inhibition of D-fructose glycation in human serum albumin model assessed as reduction in fluorescence intensity incubated for 3 days by UV spectroscopic analysis relative to control; details: 72 h, time 3 day
Albumin [27] = target: T1, Albumin; assay: Inhibition of D-glucose glycation in human serum albumin model by measuring ketoamine moieties incubated for 30 days by Nitroblue tetrazolium (NBT) reduction assay (reference value: 27.85 nmol/mL); details: 720 h, time 30 day
Albumin [28] = target: T1, Albumin; assay: Inhibition of D-glucose glycation in human serum albumin model by measuring absorbance at 279 nm incubated for 26 days by UV spectroscopic analysis (reference value: 2.301); details: 624 h, time 26 day
Albumin [29] = target: T1, Albumin; assay: Inhibition of D-fructose glycation in human serum albumin model by measuring absorbance at 279 nm incubated for 5 days by UV spectroscopic analysis (reference value: 1.056); details: 120 h, time 5 day
Albumin [30] = target: T1, Albumin; assay: Inhibition of D-fructose glycation in human serum albumin model by measuring ketoamine moieties incubated for 33 days by Nitroblue tetrazolium (NBT) reduction assay (reference value: 144.33 nmol/mL); details: 792 h, time 33 day
Mus musculus [31] = assay: Antidiabetic activity in Nicotinamide/Streptozotocin induced male Balb/c mouse model assessed as reduction in fasting blood glucose levels at 63.81 ug/kg, ip measured immediately by glucometer analysis (reference value: 127.50 +/- 6.87 mg/dl); format: functional; details: dose 63.81 µg/kg

Activity (Albumin [1]): 12.342 nmol/mL | Activity (Albumin [2]): 18.433 nmol/mL | OD (Albumin [6]): 0.335 | OD (Albumin [14]): 1.591 | Activity (Albumin [18]): 142.17 nmol/mL | OD (Albumin [20]): 0.287 | OD (Albumin [21]): 0.443 | OD (Albumin [22]): 0.434 | OD (Albumin [23]): 1.236 | inhibition (INH) (Albumin [24]): 78% | Activity (Albumin [25]): 9.573 nmol/mL | inhibition (INH) (Albumin [26]): 52.78% | Activity (Albumin [27]): 18.908 nmol/mL | OD (Albumin [28]): 2.301 | OD (Albumin [29]): 0.482 | Activity (Albumin [30]): 109.89 nmol/mL
SMILES: N=C(N)NCCC[C@H](N)C(=O)N[C@@H](Cc1c[nH]c2ccccc12)C(=O)N[C@@H](Cc1c[nH]c2ccccc12)C(=O)O (H-Arg-Trp-Trp-OH)
Activity (Mus musculus [3]): 67 mg/dL | Ratio (Mus musculus [4]): 0.75 | Activity (Mus musculus [5]): 134 mg/dL | Ratio (Mus musculus [7]): 2.63 | Activity (Mus musculus [8]): 11 mg/dL | Activity (Mus musculus [9]): 115 mg/dL | Activity (Mus musculus [10]): 97 U/L | Activity (Mus musculus [11]): 53 mg/dL | Activity (Mus musculus [12]): 152 U/L | Activity (Mus musculus [13]): 30.38 g | Activity (Mus musculus [15]): 150 mg/dL | Activity (Mus musculus [16]): 2.7% | Activity (Mus musculus [17]): 7.2% | Activity (Mus musculus [19]): 29.56 g | Activity (Mus musculus [31]): 111.5 mg/dL
